Measured values: patent publication US11931424B2, “Combination MCL-1 inhibitors with anti-body drug conjugates” (Gilead Sciences, Inc., priority 2021, dated 2024)

Test system: panel of breast cancer cell lines
Test: Compound A with targeted agents and chemotherapies, 72-hour in vitro proliferation assays
Type: cell-based
Conditions: 72-hour proliferation
[1] = AU565 cell line, compound A × partner
[2] = BT-20 cell line, compound A × partner
[3] = BT-474 cell line, compound A × partner
[4] = BT-549 cell line, compound A × partner
[5] = CAL-51 cell line, compound A × partner
[6] = CAL-85-1 cell line, compound A × partner
[7] = CAL-120 cell line, compound A × partner
[8] = CAL-148 cell line, compound A × partner
[9] = CAMA-1 cell line, compound A × partner
[10] = DU-4475 cell line, compound A × partner
[11] = EVSA-T cell line, compound A × partner
[12] = MCF7 cells, Compound A × partner agent
[13] = MDA-MB-175-VII cells, Compound A × partner agent
[14] = MDA-MB-231 cells, Compound A × partner agent
[15] = MDA-MB-361 cells, Compound A × partner agent
[16] = MDA-MB-436 cells, Compound A × partner agent
[17] = MDA-MB-453 cells, Compound A × partner agent
[18] = MDA-MB-468 cells, Compound A × partner agent
[19] = SK-BR-3 cells, Compound A × partner agent
[20] = SUM159PT cells, combination of compound A with the named agent
[21] = T47D cells, combination of compound A with the named agent
[22] = ZR-75-1 cells, combination of compound A with the named agent
[23] = ZR-75-30 cells, combination of compound A with the named agent

## CO[C@H]1C[C@@H]2CC[C@@H](C)[C@@](O)(O2)C(=O)C(=O)N2CCCC[C@H]2C(=O)O[C@H]([C@H](C)C[C@@H]2CC[C@@H](OCCO)[C@H](OC)C2)CC(=O)[C@H](C)/C=C(\C)[C@@H](O)[C@@H](OC)C(=O)[C@H](C)C[C@H](C)/C=C/C=C/C=C/1C [Everolimus]
[1]
  Bliss Volume: 5.68
  HSA volume: 2.64
  Loewe Volume: 3.01
  Synergy Score: 3.02
[2]
  Bliss Volume: 8.37
  HSA volume: 8.23
  Loewe Volume: 7.02
  Synergy Score: 11.08
[3]
  Bliss Volume: 3.26
  HSA volume: −1.26
  Loewe Volume: −2.71
  Synergy Score: 2.41
[4]
  Bliss Volume: 5.93
  HSA volume: 8.22
  Loewe Volume: 7.87
  Synergy Score: 7.35
[5]
  Bliss Volume: −2.55
  HSA volume: 0.45
  Loewe Volume: 0.41
  Synergy Score: 1.34
[6]
  Bliss Volume: 10.37
  HSA volume: 14.41
  Loewe Volume: 13.60
  Synergy Score: 16.26
[7]
  Bliss Volume: −2.79
  HSA volume: −1.61
  Loewe Volume: −1.62
  Synergy Score: 0.53
[8]
  Bliss Volume: 5.67
  HSA volume: 9.58
  Loewe Volume: 8.56
  Synergy Score: 18.16
[9]
  Bliss Volume: 10.06
  HSA volume: 2.71
  Loewe Volume: 3.20
  Synergy Score: 7.90
[10]
  Bliss Volume: 4.29
  HSA volume: 1.94
  Loewe Volume: 0.97
  Synergy Score: 2.43
[11]
  Bliss Volume: 10.56
  HSA volume: −0.76
  Loewe Volume: −1.22
  Synergy Score: 1.85
HCC38, compound A × partner
  Bliss Volume: −6.70
  HSA volume: −1.96
  Loewe Volume: −2.56
  Synergy Score: 2.18
HCC70, compound A × partner
  Bliss Volume: 9.56
  HSA volume: 8.83
  Loewe Volume: 6.84
  Synergy Score: 11.30
HCC1143, compound A × partner
  Bliss Volume: 8.68
  HSA volume: 8.45
  Loewe Volume: 10.21
  Synergy Score: 9.36
HCC1569, compound A × partner
  Bliss Volume: 2.35
  HSA volume: 5.10
  Loewe Volume: 4.65
  Synergy Score: 3.45
HCC1806, compound A × partner
  Bliss Volume: 5.19
  HSA volume: 2.88
  Loewe Volume: 5.59
  Synergy Score: 2.52
HCC1937, compound A × partner
  Bliss Volume: 1.96
  HSA volume: 3.68
  Loewe Volume: 4.63
  Synergy Score: 4.89
HCC1954, compound A × partner
  Bliss Volume: 20.04
  HSA volume: 23.41
  Loewe Volume: 21.71
  Synergy Score: 36.09
HCC2218, compound A × partner
  Bliss Volume: −0.77
  HSA volume: −0.63
  Loewe Volume: −2.03
  Synergy Score: 3.37
HDQ-P1, compound A × partner
  Bliss Volume: 6.97
  HSA volume: −1.39
  Loewe Volume: 6.48
  Synergy Score: 2.04
HMC-1-8, compound A × partner
  Bliss Volume: 9.19
  HSA volume: 5.60
  Loewe Volume: 5.97
  Synergy Score: 9.41
JIMT-1, compound A × partner
  Bliss Volume: 5.29
  HSA volume: 2.41
  Loewe Volume: 1.96
  Synergy Score: 1.56
KPL-1, compound A × partner
  Best CI: 0.45
  Best CI Level: 95
  Bliss Volume: 2.85
  HSA volume: 5.14
  Loewe Volume: 4.93
  Synergy Score: 6.00
[12]
  Bliss Volume: 6.88
  HSA volume: 7.73
  Loewe Volume: 6.93
  Synergy Score: 9.72
[13]
  Bliss Volume: 9.10
  HSA volume: 4.72
  Loewe Volume: 4.62
  Synergy Score: 10.26
[14]
  Bliss Volume: 0.30
  HSA volume: 2.64
  Loewe Volume: 3.33
  Synergy Score: 2.06
[15]
  Bliss Volume: 5.72
  HSA volume: 4.93
  Loewe Volume: 3.91
  Synergy Score: 8.70
[16]
  Bliss Volume: 2.45
  HSA volume: 4.01
  Loewe Volume: 3.66
  Synergy Score: 2.25
[17]
  Bliss Volume: 3.87
  HSA volume: 0.04
  Loewe Volume: −0.98
  Synergy Score: 5.75
[18]
  Bliss Volume: 11.63
  HSA volume: 9.14
  Loewe Volume: 7.97
  Synergy Score: 15.60
[19]
  Bliss Volume: 7.76
  HSA volume: 3.46
  Loewe Volume: 2.55
  Synergy Score: 4.58
[20]
  Bliss Volume: 0.61
  HSA volume: 1.27
  Loewe Volume: 0.66
  Synergy Score: 1.12
[21]
  Bliss Volume: −0.21
  HSA volume: 2.87
  Loewe Volume: 2.69
  Synergy Score: 3.70
[22]
  Bliss Volume: 3.52
  HSA volume: 5.12
  Loewe Volume: 4.67
  Synergy Score: 5.68
[23]
  Bliss Volume: 3.82
  HSA volume: 4.76
  Loewe Volume: 4.25
  Synergy Score: 7.22
